What was measured:
Format in all cases: in vivo
[1] = system: Echinochloa crus-galli (ECHCG); assay: Pre-emergence herbicidal activity, glasshouse pot test; details: Echinochloa crus-galli, 312 h; Rate 250 g/ha; pre-emergence spray; evaluated after 13 days; read-out: Pre-emergence activity ECHCG (100=total damage to plant; 0=no damage to plant)
Summary of the method: (§1)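 Glasshouse pots, standard soil; spray at day 1 (pre) or day 8 (post) after sowing; a.i. in acetone/water 50:50 + 0.5% Tween 20, diluted aqueous. 24/16° C, 14 h light, 65% RH. Visual damage at 13 days: 0 = none, 100 = total.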

[2] = system: Alopecurus myosuroides (ALOMY); assay: as above; details: Alopecurus myosuroides, 312 h; Rate 250 g/ha; pre-emergence spray; evaluated after 13 days; read-out: Pre-emergence activity ALOMY (100=total damage to plant; 0=no damage to plant)
Summary of the method: as §1

Avena fatua (AVEFA) [3] = assay: as above; details: Avena fatua, 312 h; Rate 250 g/ha; pre-emergence spray; evaluated after 13 days; read-out: Pre-emergence activity AVEFA (100=total damage to plant; 0=no damage to plant)
Summary of the method: as §1

Lolium perenne (LOLPE) [4] = assay: as above; details: Lolium perenne, 312 h; Rate 250 g/ha; pre-emergence spray; evaluated after 13 days; read-out: Pre-emergence activity LOLPE (100=total damage to plant; 0=no damage to plant)
Summary of the method: as §1

[5] = system: Echinochloa crus-galli (ECHCG); assay: Post-emergence herbicidal activity, glasshouse pot test; details: Echinochloa crus-galli, 312 h, rate 250 g/ha, evaluated after 13 days, glasshouse, read-out: Post-emergence activity ECHCG (100=total damage to plant; 0=no damage to plant)
Summary of the method: as §1

[6] = system: Alopecurus myosuroides (ALOMY); assay: as above; details: Alopecurus myosuroides, 312 h, rate 250 g/ha, evaluated after 13 days, glasshouse, read-out: Post-emergence activity ALOMY (100=total damage to plant; 0=no damage to plant)
Summary of the method: as §1

Avena fatua (AVEFA) [7] = assay: as above; details: Avena fatua, 312 h, rate 250 g/ha, evaluated after 13 days, glasshouse, read-out: Post-emergence activity AVEFA (100=total damage to plant; 0=no damage to plant)
Summary of the method: as §1

Lolium perenne (LOLPE) [8] = assay: as above; details: Lolium perenne, 312 h, rate 250 g/ha, evaluated after 13 days, glasshouse, read-out: Post-emergence activity LOLPE (100=total damage to plant; 0=no damage to plant)
Summary of the method: as §1

| Compound | pest or weed control at 250 g/ha [1] | pest or weed control at 250 g/ha [2] | pest or weed control at 250 g/ha (Avena fatua (AVEFA) [3]) | pest or weed control at 250 g/ha (Lolium perenne (LOLPE) [4]) | pest or weed control at 250 g/ha [5] | pest or weed control at 250 g/ha [6] | pest or weed control at 250 g/ha (Avena fatua (AVEFA) [7]) | pest or weed control at 250 g/ha (Lolium perenne (LOLPE) [8]) |
| --- | --- | --- | --- | --- | --- | --- | --- | --- |
| CCc1ccc(Oc2cccc(Br)c2)cc1C1=C(O)[C@H]2CC[C@H](C2)C1=O [Example A-245] | 80% | 0% | 0% | 50% | 80% | 0% | 10% | 20% |
| CCc1ccc(Oc2ccc(F)c(Cl)c2)cc1C1=C(O)[C@H]2CC[C@H](C2)C1=O [Example A-246] | 100% | 70% | 50% | 60% | 100% | 50% | 60% | 20% |
| CCc1ccc(Oc2ccc(Br)c(Cl)c2)cc1C1=C(O)[C@H]2CC[C@H](C2)C1=O [Example A-247] | 100% | 90% | 50% | 90% | 100% | 90% | 100% | 100% |
| CCc1ccc(Oc2ccc(OC(F)(F)F)cc2)cc1C1=C(O)[C@H]2CC[C@H](C2)C1=O [Example A-248] | 100% | 90% | 80% | 100% | 100% | 100% | 100% | 100% |
| CCc1ccc(Oc2ccc(Cl)c(F)c2)cc1C1=C(O)[C@H]2CC[C@H](C2)C1=O [Example A-249] | 90% | 60% | 60% | 90% | 100% | 90% | 100% | 70% |
| CCc1ccc(Oc2ccc(Br)cc2F)cc1C1=C(O)[C@H]2CC[C@H](C2)C1=O [Example A-250] | 90% | 80% | 50% | 80% | 100% | 90% | 80% | 80% |
| CCc1ccc(Oc2cc(Cl)c3ccccc3n2)cc1C1=C(O)C(C)(C)OC(C)(C)C1=O [Example A-251] | 100% | 40% | 20% | 80% | 100% | 80% | 30% | 0% |
| CCc1ccc(Oc2nc3ccccc3cc2C)cc1C1=C(O)C(C)(C)OC(C)(C)C1=O [Example A-253] | 80% | 70% | 30% | 100% | 70% | 50% | 40% | 70% |
| CCc1ccc(Oc2cnc3cc(Cl)ccc3n2)cc1C1=C(O)[C@H]2CC[C@H](C2)C1=O [Example A-255] | 100% | 100% | 100% | 100% | 100% | 100% | 100% | 100% |
| CCc1ccc(Oc2ccc3cc(Br)ccc3n2)cc1C1=C(O)C(C)(C)OC(C)(C)C1=O [Example A-256] | 80% | 50% | 20% | 80% | 90% | 90% | 80% | 90% |
| CCc1ccc(Oc2ccc(F)c(Cl)c2)cc1C1=C(O)CC(C)(C)CC1=O [Example A-257] | 40% | 0% | 0% | 20% | 80% | 30% | 0% | 50% |
| CCc1ccc(Oc2ccc(Br)c(Cl)c2)cc1C1=C(O)CC(C)(C)CC1=O [Example A-258] | 70% | 30% | 10% | 30% | 100% | 70% | 70% | 80% |
| CCc1ccc(Oc2ccc3cc(Cl)ccc3n2)cc1C1=C(O)[C@H]2CC[C@H](C2)C1=O [Example A-260] | 90% | 80% | 0% | 90% | 90% | 90% | 100% | 80% |
| CCc1ccc(Oc2ccc3cc(Cl)ccc3n2)cc1C1=C(O)CC(C)(C)CC1=O [Example A-261] | 90% | 80% | 50% | 80% | 100% | 90% | 100% | 100% |
| CC1(C)OC(C)(C)C(O)=C(c2cc(Oc3ccc(Cl)cc3Cl)ccc2C2CC2)C1=O [Example A-262] | 70% | 30% | 0% | 70% | 90% | 80% | 50% | 60% |
| CCc1ccc(Oc2ncc(Cl)cn2)cc1C1=C(O)CC2(CCOCC2)CC1=O [Example A-263] | 100% | 60% | 20% | 50% | 100% | 100% | 90% | 60% |
| CCc1ccc(Oc2nc3ccc(OC)cc3s2)cc1C1=C(O)CC2(CCOCC2)CC1=O [Example A-264] | 100% | 90% | 80% | 90% | 100% | 90% | 90% | 100% |
| CCc1ccc(Oc2nc3ccc([N+](=O)[O-])cc3s2)cc1C1=C(O)CC2(CCOCC2)CC1=O [Example A-265] | 90% | 60% | 0% | 80% | 100% | 70% | 70% | 70% |
| CCc1ccc(Oc2ccc(C(F)(F)F)c(C#N)c2)cc1C1=C(O)CC2(CCOCC2)CC1=O [Example A-266] | 90% | 50% | 50% | 90% | 100% | 90% | 90% | 70% |
| CCc1ccc(Oc2ccc(C(F)(F)F)cn2)cc1C1=C(O)CC2(CCOCC2)CC1=O [Example A-267] | 100% | 100% | 100% | 100% | 100% | 100% | 100% | 100% |
| CCc1ccc(Oc2ncc(Cl)cc2C(F)(F)F)cc1C1=C(O)CC2(CCOCC2)CC1=O [Example A-268] | 100% | 90% | 80% | 100% | 100% | 90% | 90% | 70% |

Source: patent publication US8865623B2, “Herbicidally active cyclic diones and derivatives thereof, processes for their preparation, compositions, and method of controlling weeds” (Syngenta Limited, priority 2009, dated 2014)
